Experimental data reported in patent US20050004186A1, “MEK inhibiting compounds” (Pfizer Inc, priority 2002, published 2005).

Legend:
[1] = system: MEK; assay: Cellular assay for measuring MEK inhibition, C26ELSA (pERK ELISA format in C26 cells); format: cell-based, murine; conditions: for IC50: murine colon 26 (C26) carcinoma cells, one hour at 37 C
Method: Cellular Assay for Measuring MEK Inhibition
MEK inhibitors were evaluated by determining their ability to inhibit phosphorylation of MAP kinase (ERK) in murine colon 26 (C26) carcinoma cells. Since ERK1 and ERK2 represent the only known substrates for MEK1 and MEK2, the measurement of inhibition of ERK phosphorylation in cells provides direct read out of cellular MEK inhibition by the compounds of the invention. Detection of phosphorylation of ERK was carried out either by Western blot or ELISA format. Briefly, the assays involve treatment of exponentially growing C26 cells with varying concentrations of the test compound (or vehicle control) for one hour at 37≡ C. For Western blot assay, cells were rinsed free of compound/vehicle and lysed in a solution containing 70 mM NaCl, 50 mM glycerol phosphate, 10 mM HEPES, […], 1% Triton X-100, 1 mM Na3VO4, 100 μM PMSF, 10 μM leupeptin and 10 μM pepstatin. Supernatants were then subjected to gel electrophoresis and hybridized to a primary antibody recognizing dually phosphorylated ERK1 and ERK2. To evaluate total MAPK levels, blots were subsequently ‘stripped’ and re-probed with a 1:1 mixture of polyclonal antibodies recognizing unphosphorylated ERK1 and ERK2. For pERK ELISA assay, pERK TiterZyme Enzyme immunometric Assay kits were acquired from Assay Designs, Inc (Ann Arbor, Mich.). Briefly, cells were harvested in lysis solution containing 50 mM β-glycerophosphate, 10 mM HEPES, pH7.4, 70 mM NaCl, 2 mM EDTA and 1% SDS and protein lysates were diluted 1:15 with supplied Assay buffer prior to the execution of the assay. The subsequent steps were carried out essentially as recommended by the manufacturer.

Structure (SMILES)	IC50 [1]	melting point	C26ELSA % Inhibition @ 5 μM ([1]; C26 cells)	C26ELSA % Inhib @ 0.5 μM ([1]; 0.5 μM, C26 cells)
C#Cc1ccc(Nc2c(-c3nnc(NCCO)o3)ccc(F)c2F)c(F)c1 [Example 140, 2-{5-[2-(4-Ethynyl-2-fluoro-phenylamino)-3,4-difluoro-phenyl]-[1,3,4]oxadiazol-2-ylamino}-ethanol]	3 nM	115.9 to 116.5 °C	–	–
CCc1nnc(-c2ccc(F)c(F)c2Nc2ccc(I)cc2F)o1 [Example 143, [6-(5-Ethyl-[1,3,4]oxadiazol-2-yl)-2,3-difluoro-phenyl]-(2-fluoro-4-iodo-phenyl)-amine]	–	97 to 98 °C	88%	–
OCCCc1ccc(Nc2c(-c3nnc(NCCN4CCOCC4)o3)ccc(F)c2F)c(F)c1 [Example 147, 3-(4-{2,3-Difluoro-6-[5-(2-morpholin-4-yl-ethylamino)-[1,3,4]oxadiazol-2-yl]-phenylamino}-3-fluoro-phenyl)-propan-1-ol]	34000 nM	102 to 106 °C	–	–
C#Cc1ccc(Nc2c(-c3nnc(NCCN4CCOCC4)o3)ccc(F)c2F)c(F)c1 [Example 148, {5-[2-(4-Ethynyl-2-fluoro-phenylamino)-3,4-difluoro-phenyl]-[1,3,4]oxadiazol-2-yl}-(2-morpholin-4-yl-ethyl)-amine]	63 nM	146 to 148 °C	–	–
OC[C@H](O)CNc1nnc(-c2ccc(F)c(F)c2Nc2ccc(I)cc2F)o1 [Example 150, 3-{5-[3,4-Difluoro-2-(2-fluoro-4-iodo-phenylamino)-phenyl]-[1,3,4]oxadiazol-2-ylamino}-propane-1,2 (R)-diol]	92 nM	174 to 176 °C	–	–
C#Cc1ccc(Nc2c(-c3nnc(NC[C@@H](O)CO)o3)ccc(F)c2F)c(F)c1 [Example 151, 3-{5-[2-(4-Ethynyl-2-fluoro-phenylamino)-3,4-difluoro-phenyl]-[1,3,4]oxadiazol-2-ylamino}-propane-1,2(R)-diol]	120 nM	–	–	–
CCc1ccc(Nc2c(-c3nnc(NC[C@@H](O)CO)o3)ccc(F)c2F)c(F)c1 [Example 152, 3-{5-[2-(4-Ethyl-2-fluoro-phenylamino)-3,4-difluoro-phenyl]-[1,3,4]oxadiazol-2-ylamino}-propane-1,2(R)-diol]	2400 nM	150 to 152 °C (dec.)	–	–
OCC(CO)Nc1nnc(-c2ccc(F)c(F)c2Nc2ccc(I)cc2F)o1 [Example 154, 2-{5-[3,4-Difluoro-2-(2-fluoro-4-iodo-phenylamino)-phenyl]-[1,3,4]oxadiazol-2-ylamino}-propane-1,3-diol]	110 nM	110 to 114 °C (dec.)	–	–
C=Cc1ccc(Nc2c(-c3nnc(NCCN4CCOCC4)o3)ccc(F)c2F)c(F)c1 [Example 156, {5-[3,4-Difluoro-2-(2-fluoro-4-vinyl-phenylamino)-phenyl]-[1,3,4]oxadiazol-2-yl}-(2-morpholin-4-yl-ethyl)-amine]	710 nM	174 to 177 °C	–	–
OCCc1ccc(Nc2c(-c3nnc(NCCN4CCOCC4)o3)ccc(F)c2F)c(F)c1 [Example 157, 2-(4-{2,3-difluoro-6-[5-(2-morpholin-4-yl-ethylamino)-[1,3,4]oxadiazol-2-yl]-phenylamino}-3-fluoro-phenyl)-ethanol]	–	–	33%	31%
OCCNc1nnc(-c2ccc(F)c(F)c2Nc2ccc(CCO)cc2F)o1 [Example 169, 2-(5-{3,4-difluoro-2-[2-fluoro-4-(2-hydroxy-ethyl)phenylamino]-phenyl}-[1,3,4]oxadiazol-2-ylamino)ethanol]	5100 nM	–	–	–
